Measurements reported in patent US20160338989A1, “SOLID PHARMACEUTICAL COMPOSITIONS CONTAINING BENZOFURAN DERIVATIVES” (SANOFI, priority 1997, published 2016).
Counter-ions that a name gives are not always drawn.

Assays:
physchem = details: aqueous medium
[1] = Dissolution at pH=4 and dilution to 1/10 with buffer of pH=7; format: physicochemical
Experimental: Thus, it is possible to dissolve 400 mg of dronedarone hydrochloride in 200 ml of aqueous medium buffered to pH=4 (aqueous 0.1 M NaH2PO4 solution).
On the other hand, in this medium diluted to 1/10 with an aqueous solution buffered to pH=7 (aqueous 0.1 M Na2HPO4 solution), dronedarone hydro-chloride precipitates (pH of the final medium: 6.7).

[2] = Behaviour in the presence of bile salts; format: physicochemical; details: bile salts such as sodium taurocholate
[3] = Bioavailability after intake of food, dogs; format: in vivo; details: in particular fats
Excerpt: (§1) This behaviour in intestinal medium probably makes it possible to explain in vivo the low bio-availability of dronedarone hydrochloride and the differences observed after administration with or without food, since it has been observed that the bio-availability of dronedarone hydrochloride in dogs and in man is increased after the intake of food, in particular fats, which can greatly modify the precipitation kinetics of this active principle and also help to place it in emulsion form.

[4] = Bioavailability after intake of food, man; format: in vivo; details: in particular fats
Excerpt: as §1

[5] = Test of maintenance in solution at pH=6.7, active principle alone; format: physicochemical; details: absence of surfactant; pH 6.7, 2 hours at 37° C.
Experimental: Solutions were prepared containing 2 mg/ml of dronedarone. hydrochloride in hydrogenphosphate (NaH2PO4 buffered medium at pH=4.5 for 2 hours at 37° C. in the presence or absence of x % of nonionic hydrophilic surfactant to be studied, calculated on a weight basis relative to the active principle in base form.
This solution was then diluted to 1/10th in a neutral phosphate medium (Na2HPO4+NaH2PO4), the pH of the final solution being 6.7.
After 2 hours at 37° C., the solution was filtered through an Acrodisc brand 5 μm filter and the active principle in solution was assayed by UV spectrometry.

CCCCc1oc2ccc(NS(C)(=O)=O)cc2c1C(=O)c1ccc(OCCCN(CCCC)CCCC)cc1 [dronedarone hydrochloride, 2-n-butyl-3-[4-(3-di-n-butyl-aminopropoxy)benzoyl]-5-methylsul-phonamidobenzofuran]
solubility (physchem; aqueous buffer): 1000 to 2000 µg/mL
solubility (physchem; pH 7, aqueous buffer): 10 µg/mL
behaviour on dilution to 1/10 with aqueous solution buffered to pH=7 ([1]; 0.1 M Na2HPO4, pH of the final medium 6.7): precipitates
amount that can be dissolved in 200 ml of aqueous medium ([1]; buffered to pH=4 (aqueous 0.1 M NaH2PO4 solution)): 400 mg
behaviour in the presence of bile salts [2]: precipitates
bioavailability after the intake of food [3]: increased
bioavailability after the intake of food [4]: increased
% of dronedarone hydrochloride in solution [5]: 5%
